Source: patent publication US10519140B2, “Indolin-2-one derivatives” (Hoffmann-La Roche Inc., priority 2015, dated 2019)

Test system: L-687,414-induced hyperlocomotion
Assay: L-687,414-induced hyperlocomotion
Assay type: in vivo
Conditions: Mus musculus; mice; dose 30 mg/kg ip, 15 min before 50 mg/kg s.c. L-687,414
From the text: The authors described that hyperlocomotion induced by L-687,414 was inhibited by a series of known antipsychotic drugs. […] These findings predict antipsychotic activity for the present compounds, making them useful for the treatment of positive (psychosis) and negative symptoms of schizophrenia, substance abuse, alcohol and drug addiction, obsessive-compulsive disorders, cognitive impairment, bipolar disorders, mood disorders, major depression, resistant depression, anxiety disorders, Alzheimer's disease, autism, Parkinson's disease, chronic pain, borderline personality disorder, sleep disturbances, chronic fatigue syndrome, stiffness, antiinflammatory effects in arthritis and balance problems, and treatment of epilepsy and neurodevelopmental disorders with co-morbid epilepsy.
The described compounds of formula I reduce L-687,414-induced hyperlocomotion. This was assessed by using a computerized Digiscan 16 Animal Activity Monitoring System (Omnitech Electronics, Columbus, Ohio) to quantify locomotor activity. Animals were kept under a 12 h light/dark cycle and experiments were performed during the light period. Each activity monitoring chamber consisted of a Plexiglas box (41×41×28 cm; W×L×H) with sawdust bedding on the floor surrounded by invisible horizontal and vertical infrared sensor beams. The test boxes were divided by a Plexiglas cross providing each mouse with 20×20 cm of moving space. Cages were connected to a Digiscan Analyzer linked to a computer that constantly collected the beam status information. Records of photocell beam interruptions for individual animals were taken every 5 min over the duration of the experimental session and the sum of the first 6 periods was used as the final parameter. At least 8 mice were used in each treatment group. Compounds were administered i.p. 15 min before a s.c. injection of 50 mg/kg of L-687,414. Mice were then transferred from their home cage to the recording chambers for a 15-min habituation phase allowing free exploration of the new environment. Horizontal activity was then recorded for a 30-min time period. The % inhibition of L-687,414-induced hyperlocomotion was calculated according to the equation: ((Veh+L-687,414 horizontal activity−drug+L-687,414 horizontal activity)/Veh+L−687,414 horizontal activity)×100
ID50 values, defined as doses of each compound producing 50% inhibition of L-687,414-induced hyperlocomotion, were calculated by linear regression analysis of a dose-response data using an Excel-based computer-fitting program.
As data was not presupposed to be normally distributed, groups treated with test compounds were statistically compared with the control (vehicle-treated) group using one-tailed Mann Whitney U tests. In statistics, the Mann-Whitney Utest (also called the Mann-Whitney-Wilcoxon (MWW) or Wilcoxon rank-sum test) is a non-parametric statistical hypothesis test for assessing whether one of two samples of independent observations tends to have larger values than the other. It is one of the most well-known non-parametric significance tests. […] P values given in table 1 are one-tailed since only decreases in locomotion were expected and tested for (Mann, H. B., Whitney, D. R. (1947), “On a Test of Whether one of Two Random Variables is Stochastically Larger than the Other”, Annals of Mathematical Statistics, 18 (1), 50-60).

Row | SMILES | inhibition in vivo at 30 mg/kg [%]
1 | Cc1ncc(-c2ccc3c(c2)N(c2cncc(N4CCOCC4)n2)C(=O)C3(C)C)cn1 [Example 1, 3,3-Dimethyl-6-(2-methylpyrimidin-5-yl)-1-(6-morpholinopyrazin-2-yl)indolin-2-one] | 90
2 | Cc1ncc(-c2ccc3c(c2)N(c2cncc(N4CCCC4=O)n2)C(=O)C3(C)C)cn1 [Example 3, 3,3-Dimethyl-6-(2-methylpyrimidin-5-yl)-1-(6-(2-oxopyrrolidin-1-yl)pyrazin-2-yl)indolin-2-one] | 87.8
3 | Cc1ncc(-c2ccc3c(c2)N(c2cncc(N4CCOC4=O)n2)C(=O)C3(C)C)cn1 [Example 15, 3-(6-(3,3-Dimethyl-6-(2-methylpyrimidin-5-yl)-2-oxoindolin-1-yl)pyrazin-2-yl)oxazolidin-2-one] | 87.1
4 | Cc1ncc(-c2ccc3c(c2)N(c2cnc(C)c(N4CCOCC4)n2)C(=O)C3(C)C)cn1 [Example 18, 3,3-Dimethyl-1-(5-methyl-6-morpholinopyrazin-2-yl)-6-(2-methylpyrimidin-5-yl)indolin-2-one] | 88.8
5 | Cc1ncc(-c2ccc3c(c2)N(c2cnc(C)c(N4CCOC4=O)n2)C(=O)C3(C)C)cn1 [Example 20, 3-(6-(3,3-Dimethyl-6-(2-methylpyrimidin-5-yl)-2-oxoindolin-1-yl)-3-methylpyrazin-2-yl)oxazolidin-2-one] | 89.7
6 | Cc1ncc(-c2ccc3c(c2)N(c2ccc4c(n2)N(C)C(=O)C4(C)C)C(=O)C3(C)C)cn1 [Example 39, 6-(3,3-Dimethyl-6-(2-methylpyrimidin-5-yl)-2-oxoindolin-1-yl)-1,3,3-trimethyl-1H-pyrrolo[2,3-b]pyridin-2(3H)-one] | 99.5
7 | Cc1ncc(-c2ccc3c(c2)N(c2cnc(-n4ccnc4C)cn2)C(=O)C3(C)C)cn1 [Example 50, 3,3-Dimethyl-1-(5-(2-methyl-1H-imidazol-1-yl)pyrazin-2-yl)-6-(2-methylpyrimidin-5-yl)indolin-2-one] | 96.3
8 | Cc1ncc(-c2ccc3c(c2)N(c2cnc4c(c2)C(C)(C)C(=O)N4C)C(=O)C3(C)C)cn1 [Example 54, 5-(3,3-Dimethyl-6-(2-methylpyrimidin-5-yl)-2-oxoindolin-1-yl)-1,3,3-trimethyl-1H-pyrrolo[2,3-b]pyridin-2(3H)-one] | 93.5
